Among the test systems are RXF 393 renal; NCI-H522 lung; U251 CNS; RPMI-8226 leukemia; HCT-116 colon; 786-0 renal; SW-620 colon; CAKI-1 renal; ACHN renal; CCRF-CEM leukemia.
Common to all, as to test: growth of human tumour cells (NCI), 48 h

The structures appear in SMILES notation.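 The compound was tested at five concentrations on cells cultured in 96-well plates, with a 48-hour exposure period. Abbreviation: GI50, concentration required for 50% inhibition of growth. TGI is the concentration that stops growth completely.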

Take `CC12CCC(=O)C=C1CCC1C2C(O)CC2(C)C(c3csc(N)n3)CCC12` (centres undefined): the TGI in the assay with RXF 393 renal, in the assay with NCI-H522 lung, with U251 CNS, with RPMI-8226 leukemia, in the assay on HCT-116 colon and in the assay on 786-0 renal was over 100 µM in each case. Further, the TGI in the assay with SW-620 colon, with CAKI-1 renal and in the assay on ACHN renal was over 100 µM each time.

For the compound `CC(=O)n1c2ccccc2c2nc3nc(Oc4ccc(C)cc4)c4ccccc4c3cc21`, the TGI in the assay on NCI-H522 lung, in the assay with U251 CNS, in the assay with RPMI-8226 leukemia, with HCT-116 colon, in the assay with CCRF-CEM leukemia and in the assay with 786-0 renal was over 100 µM in each case. Besides, the TGI in the assay with SW-620 colon, in the assay with CAKI-1 renal and in the assay on ACHN renal was over 100 µM throughout.

Turning to `CN(CCOc1ccc(C#N)cc1)CCOc1ccc(C#N)cc1`, the GI50 with RXF 393 renal was 46.8 µM; in the assay with NCI-H522 lung it was 4.98 µM; with U251 CNS it was 81.4 µM; in the assay on RPMI-8226 leukemia, 7.39 µM; with HCT-116 colon it was 60.5 µM; in the assay with 786-0 renal, over 100 µM. Also, the GI50 is 57.5 µM in the assay on SW-620 colon, 74.6 µM with CAKI-1 renal and 41.5 µM with ACHN renal. Besides, the TGI in the assay on RXF 393 renal, with NCI-H522 lung, in the assay on U251 CNS, in the assay with RPMI-8226 leukemia, in the assay with HCT-116 colon and in the assay on 786-0 renal was over 100 µM throughout. Also, the TGI with SW-620 colon, in the assay on CAKI-1 renal and in the assay with ACHN renal was over 100 µM throughout.

In the case of `Fc1ccc2[nH]c3c(NCCCN4CCOCC4)ncnc3c2c1`, the GI50 in the assay on RXF 393 renal was 34.5 µM; in the assay on U251 CNS it was 48.8 µM; in the assay on RPMI-8226 leukemia it was 31.4 µM; with HCT-116 colon, 33.7 µM; in the assay with 786-0 renal, over 100 µM; in the assay with SW-620 colon it was 40.8 µM. Besides, the GI50 was 34.2 µM in the assay on CAKI-1 renal and 47.5 µM in the assay on ACHN renal. Moreover, the TGI in the assay on RXF 393 renal, in the assay with U251 CNS, in the assay with RPMI-8226 leukemia, in the assay on HCT-116 colon, in the assay on 786-0 renal and in the assay with SW-620 colon was over 100 µM each time. Also, the TGI in the assay with CAKI-1 renal and in the assay on ACHN renal was over 100 µM each time.

`CCOC(=O)C(=O)Nc1c(C)cccc1C`: the TGI in the assay on RXF 393 renal, in the assay on U251 CNS, in the assay on RPMI-8226 leukemia, with HCT-116 colon, with 786-0 renal and in the assay on SW-620 colon was over 100 µM each time. In addition, the TGI in the assay on CAKI-1 renal and in the assay with ACHN renal was over 100 µM each time.

Take `COc1nc2nccc-2c2occn12`: the TGI in the assay with RXF 393 renal, with NCI-H522 lung, in the assay with U251 CNS, in the assay on RPMI-8226 leukemia, in the assay on HCT-116 colon and in the assay on 786-0 renal was over 100 µM throughout. Further, the TGI in the assay with SW-620 colon, in the assay with CAKI-1 renal and in the assay with ACHN renal was over 100 µM in each case.

Consider `O=C(CSC(=S)N1CCOCC1)Nc1nc2c(s1)CCCC2`, for which the TGI in the assay with NCI-H522 lung is 70.2 µM; in the assay with U251 CNS it was over 100 µM; in the assay on RPMI-8226 leukemia, over 100 µM; with HCT-116 colon, over 100 µM; in the assay with CCRF-CEM leukemia, over 100 µM; in the assay with 786-0 renal, over 100 µM. Moreover, the TGI in the assay on ACHN renal is over 100 µM.

With `C[C@@H]1CN(CC(=O)N2CC(C)(C)c3nc(CO)c(Cc4ccc(F)cc4)cc32)[C@@H](CN2CCOC[C@H]2C)CN1`, the GI50 is 21.8 µM with NCI-H522 lung; 68.5 µM in the assay with U251 CNS; 21.9 µM in the assay on RPMI-8226 leukemia; 36.9 µM in the assay with HCT-116 colon; 31.3 µM in the assay on CCRF-CEM leukemia; 47.4 µM with 786-0 renal. Moreover, the GI50 with SW-620 colon, in the assay on CAKI-1 renal and in the assay on ACHN renal was over 100 µM throughout. In addition, the TGI in the assay with NCI-H522 lung is 71.6 µM; in the assay with U251 CNS it was over 100 µM; in the assay with RPMI-8226 leukemia, 48 µM; in the assay on HCT-116 colon it was over 100 µM; in the assay on CCRF-CEM leukemia, over 100 µM; with 786-0 renal, over 100 µM. Also, the TGI with SW-620 colon, in the assay with CAKI-1 renal and with ACHN renal was over 100 µM each time.

For the compound `CCCCCCCCCCCC[n+]1ccc(CCCCCCCCC)cc1`, the GI50 was 1.36 µM with RXF 393 renal, 0.695 µM with NCI-H522 lung, 1.38 µM in the assay with 786-0 renal and 1.51 µM in the assay with CAKI-1 renal. Besides, the TGI was found to be 2.86 µM in the assay with RXF 393 renal, 2.19 µM in the assay with NCI-H522 lung, 3.07 µM in the assay with 786-0 renal and 2.93 µM in the assay on CAKI-1 renal.

On to `O=C1C2=C(c3ccccc31)C(c1ccccc1)NC(=S)N2` (centres undefined), for which the TGI in the assay on NCI-H522 lung was over 100 µM; in the assay on U251 CNS, over 100 µM; in the assay with RPMI-8226 leukemia, over 100 µM; in the assay with HCT-116 colon it was over 100 µM; with CCRF-CEM leukemia it was over 100 µM; with 786-0 renal, 85 µM. For the same compound, the TGI in the assay on SW-620 colon, with CAKI-1 renal and in the assay with ACHN renal was over 100 µM throughout.

As for `CC(=O)Nc1ccc2c(c1)oc(=O)c1cc(NC(C)=O)ccc12`, the GI50 with RXF 393 renal is over 100 µM; with NCI-H522 lung it was 55.7 µM; in the assay on U251 CNS, over 100 µM; with RPMI-8226 leukemia, 52.8 µM; in the assay with HCT-116 colon, 80.8 µM; in the assay with 786-0 renal, over 100 µM. Also, the GI50 in the assay on SW-620 colon, in the assay on CAKI-1 renal and in the assay with ACHN renal was over 100 µM throughout. In addition, the TGI in the assay with RXF 393 renal, in the assay with NCI-H522 lung, with U251 CNS, in the assay with RPMI-8226 leukemia, in the assay with HCT-116 colon and in the assay with 786-0 renal was over 100 µM throughout. In addition, the TGI in the assay on SW-620 colon, in the assay on CAKI-1 renal and with ACHN renal was over 100 µM each time.

With `CC/C=C\C/C=C\C/C=C\CCCCCCCC(=O)OCC`, the TGI with U251 CNS, in the assay with RPMI-8226 leukemia, with HCT-116 colon, in the assay on CCRF-CEM leukemia, in the assay with 786-0 renal and in the assay on SW-620 colon was over 100 µM throughout. The TGI with CAKI-1 renal and with ACHN renal was over 100 µM in each case.

Turning to `Nc1nc2c(c(=O)[nH]1)CN(c1ccc(S(N)(=O)=O)cc1)CN2`, the TGI in the assay on NCI-H522 lung, in the assay with U251 CNS, with RPMI-8226 leukemia, with HCT-116 colon, with 786-0 renal and with SW-620 colon was over 100 µM each time. Also, the TGI in the assay on CAKI-1 renal and with ACHN renal was over 100 µM in each case.

`CC(=O)OCC1OC(n2ccc(=O)[nH]c2=O)C(OC(C)=O)C1OC(C)=O` (centres undefined): the GI50 in the assay with RXF 393 renal, in the assay on NCI-H522 lung, in the assay with U251 CNS, with RPMI-8226 leukemia, in the assay with HCT-116 colon and in the assay on 786-0 renal was over 100 µM in each case. Also, the GI50 with SW-620 colon, in the assay with CAKI-1 renal and with ACHN renal was over 100 µM throughout. Further, the TGI in the assay with RXF 393 renal, in the assay with NCI-H522 lung, in the assay with U251 CNS, with RPMI-8226 leukemia, in the assay with HCT-116 colon and in the assay with 786-0 renal was over 100 µM each time. Further, the TGI in the assay on SW-620 colon, in the assay with CAKI-1 renal and with ACHN renal was over 100 µM throughout.

Consider `COC(=O)C1C2C=CC(C2)N1[C@@H](C)c1ccccc1` (some centres undefined), for which the TGI in the assay with NCI-H522 lung, with U251 CNS, in the assay with RPMI-8226 leukemia, with HCT-116 colon, with CCRF-CEM leukemia and in the assay with 786-0 renal was over 100 µM in each case. Further, the TGI in the assay with SW-620 colon, in the assay on CAKI-1 renal and in the assay on ACHN renal was over 100 µM throughout.

With `O=NNc1nc(-c2cccnc2)nc2ccccc12`, the TGI with NCI-H522 lung, with U251 CNS, in the assay with HCT-116 colon, in the assay on CCRF-CEM leukemia, in the assay with 786-0 renal and in the assay with SW-620 colon was over 100 µM in each case. In addition, the TGI with CAKI-1 renal and in the assay with ACHN renal was over 100 µM each time.

In the case of `CCCCn1cnc2c(SC)ncnc21`, the TGI with RXF 393 renal, in the assay on NCI-H522 lung, in the assay on U251 CNS, in the assay on RPMI-8226 leukemia, with HCT-116 colon and with 786-0 renal was over 100 µM in each case. Besides, the TGI in the assay with SW-620 colon, in the assay with CAKI-1 renal and in the assay with ACHN renal was over 100 µM throughout.

For `CC(=O)Oc1ccc(O)c(O)c1C/C=C(\C)CC/C=C(\C)CC/C=C(\C)CCC=C(C)C`, the TGI in the assay with RXF 393 renal is 2.47 µM; in the assay on NCI-H522 lung, 6.84 µM; with U251 CNS, 1.28 µM; in the assay on 786-0 renal it was 2.83 µM; with SW-620 colon, 1.21 µM; in the assay with CAKI-1 renal, 8.03 µM. In the assay with ACHN renal, this compound gave a TGI of 0.823 µM.

For `S=c1[nH]c2ccc(Br)cc2c(=S)n1-c1ccccc1`, the TGI was 48.4 µM in the assay with U251 CNS; 56.7 µM with RPMI-8226 leukemia; 43.9 µM in the assay with HCT-116 colon; over 100 µM with CCRF-CEM leukemia; 96.8 µM with 786-0 renal; over 100 µM with SW-620 colon. For the same compound, the TGI in the assay on CAKI-1 renal is over 100 µM; in the assay with ACHN renal it was 79.3 µM.

The values are drawn from PubChem BioAssay (NCI).
